According to ChEMBL document CHEMBL4420066, “Aryl amine substituted quinoxaline used as anticancer drugs” (2017):
The source made the active and inactive calls. The calls are words filed in the database; no cut-off is given here.

How the values were obtained:
Homo sapiens [1] = organism: Homo sapiens; assay: Induction of apoptosis in human PLC5 cells at 2 uM incubated for 24 hrs in presence of 100 nM PP2A inhibitor okadaic acid by annexin-V-FITC staining based by flow cytometry; assay type: functional, cell-based
Hep 3B2 [2] = assay: Inhibition of CIP2A protein expression in human Hep3B cells assessed as CIP2A protein expression ratio level at 1 uM by Western blotting analysis (Rvb =1); assay type: functional
Hep 3B2 [3] = assay: Inhibition of PP2A-B5 protein expression in human Hep3B cells at 1 uM incubated for 24 hrs by Western blotting analysis; assay type: functional, cell-based
[4] = biological target: Serine/threonine-protein kinase AKT (Homo sapiens) (UniProt P31751+Q9Y243+P31749); assay: Inhibition of Akt phosphorylation at S473 residue in human SKHEP1 cells by Western blotting analysis; assay type: cell-based
Serine/threonine-protein kinase AKT (Homo sapiens), sequence (P31749 whole entry, looked up): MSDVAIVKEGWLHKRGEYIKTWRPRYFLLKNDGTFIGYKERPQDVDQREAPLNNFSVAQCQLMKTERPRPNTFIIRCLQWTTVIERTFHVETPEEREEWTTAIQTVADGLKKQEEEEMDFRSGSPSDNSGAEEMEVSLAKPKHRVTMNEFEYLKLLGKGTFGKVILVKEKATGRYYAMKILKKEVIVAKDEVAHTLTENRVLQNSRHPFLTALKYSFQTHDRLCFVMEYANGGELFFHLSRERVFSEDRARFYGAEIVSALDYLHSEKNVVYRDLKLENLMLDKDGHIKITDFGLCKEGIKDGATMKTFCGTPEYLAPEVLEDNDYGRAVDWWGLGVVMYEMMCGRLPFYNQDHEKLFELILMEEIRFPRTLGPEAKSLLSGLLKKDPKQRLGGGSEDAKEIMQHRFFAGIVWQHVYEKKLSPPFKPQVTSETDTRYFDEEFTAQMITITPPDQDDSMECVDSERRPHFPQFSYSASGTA
Serine/threonine-protein kinase AKT (Homo sapiens), sequence (P31751 whole entry, looked up): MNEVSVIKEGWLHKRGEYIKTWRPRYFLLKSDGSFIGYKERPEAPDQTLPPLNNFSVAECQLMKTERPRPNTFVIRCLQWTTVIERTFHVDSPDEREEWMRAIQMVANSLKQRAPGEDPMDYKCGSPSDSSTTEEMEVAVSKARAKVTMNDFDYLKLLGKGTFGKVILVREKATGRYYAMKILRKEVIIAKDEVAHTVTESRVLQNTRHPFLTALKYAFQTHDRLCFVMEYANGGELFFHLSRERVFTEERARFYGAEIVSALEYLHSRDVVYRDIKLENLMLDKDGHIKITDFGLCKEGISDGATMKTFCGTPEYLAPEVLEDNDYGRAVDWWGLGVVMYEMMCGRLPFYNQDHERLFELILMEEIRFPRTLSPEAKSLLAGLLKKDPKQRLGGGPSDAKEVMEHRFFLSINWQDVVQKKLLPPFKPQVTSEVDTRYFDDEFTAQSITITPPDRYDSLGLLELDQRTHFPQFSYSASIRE
Serine/threonine-protein kinase AKT (Homo sapiens), sequence (Q9Y243 whole entry, looked up): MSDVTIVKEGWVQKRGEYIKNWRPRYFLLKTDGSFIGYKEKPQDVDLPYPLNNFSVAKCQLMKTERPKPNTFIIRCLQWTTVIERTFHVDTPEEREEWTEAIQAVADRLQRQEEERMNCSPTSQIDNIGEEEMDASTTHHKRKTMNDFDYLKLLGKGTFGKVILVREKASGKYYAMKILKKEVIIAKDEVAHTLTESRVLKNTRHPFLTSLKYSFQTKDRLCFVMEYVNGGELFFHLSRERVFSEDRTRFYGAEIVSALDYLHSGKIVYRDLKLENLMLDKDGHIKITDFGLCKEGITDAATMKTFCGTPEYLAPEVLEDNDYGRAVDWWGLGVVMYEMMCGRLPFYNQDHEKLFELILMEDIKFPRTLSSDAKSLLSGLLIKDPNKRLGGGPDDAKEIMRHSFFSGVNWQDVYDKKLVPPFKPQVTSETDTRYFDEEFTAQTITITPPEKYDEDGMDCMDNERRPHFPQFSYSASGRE

SK-HEP1 [5] = assay: Inhibition of CIP2A protein expression in human SKHEP1 cells assessed as CIP2A protein expression ratio level at 2 uM by Western blotting analysis (Rvb =1); assay type: functional
Homo sapiens [6] = organism: Homo sapiens; assay: Inhibition of human CIP2A gene promoter in human PLC5 cells assessed as inhibition of ELK1 protein expression at 2 uM by Western blotting analysis; assay type: cell-based
Homo sapiens [7] = organism: Homo sapiens; assay: Induction of apoptosis in human PLC5 cells assessed as accumulation at subG1 phase at 0.5 to 4 uM by flow cytometry; assay type: functional, cell-based
Homo sapiens [8] = organism: Homo sapiens; assay: Activation of PP2A in human HA22T cells assessed as increase in protein phosphatase activity at 1 uM incubated for 24 hrs using phosphopeptide substrate incubated for 10 mins by malachite green-phosphate complex assay; assay type: cell-based
SK-HEP1 [9] = assay: Inhibition of CIP2A protein expression in human SKHEP1 cells assessed as CIP2A protein expression ratio level at 4 uM by Western blotting analysis (; assay type: functional
Mus musculus = assay: Suppression of CIP2A expression in tumor of human PLC5 cells xenografted in mouse at 10 mg/kg dosed for 4 weeks by Western blot analysis; assay type: functional, organism-based
Homo sapiens [10] = organism: Homo sapiens; assay: Induction of apoptosis in human PLC5 cells assessed as induction of DNA fragmentation at 1 uM incubated for 24 hrs by ELISA; assay type: functional, cell-based
Homo sapiens [11] = organism: Homo sapiens; assay: Induction of apoptosis in human PLC5 cells at 2 uM in presence of caspase inhibitor Z-VAD-fmk incubated for 48 hrs by annexin-V-FITC staining based by flow cytometry; assay type: functional, cell-based
SK-HEP1 [12] = assay: Inhibition of PP2A-B5 protein expression in human SKHEP1 cells at 1 uM incubated for 24 hrs by Western blotting analysis; assay type: functional, cell-based
Hep 3B2 [13] = assay: Induction of apoptosis in human Hep3B cells assessed as induction of PARP cleavage at 0.5 to 4 uM incubated for 48 hrs by Western blotting analysis; assay type: functional, cell-based
Homo sapiens [14] = organism: Homo sapiens; assay: Activation of PP2A in human PLC5 cells assessed as minimal concentration causing increase in protein phosphatase activity incubated for 24 hrs using phosphopeptide substrate incubated for 10 mins by malachite green-phosphate complex assay; assay type: cell-based
HA22T cell line = assay: Inhibition of CIP2A protein expression in human HA22T cells assessed as CIP2A protein expression ratio level at 1 uM by Western blotting analysis (Rvb =1); assay type: functional
SK-HEP1 [15] = assay: Inhibition of PP2A-A protein expression in human SKHEP1 cells at 1 uM incubated for 24 hrs by Western blotting analysis; assay type: functional, cell-based
Homo sapiens [16] = organism: Homo sapiens; assay: Induction of apoptosis in human PLC5 cells with ectopic overexpression of GFP-tagged Elk-1 at 2 uM incubated for 24 hrs by annexin-V-FITC staining based by flow cytometry; assay type: functional, cell-based
[17] = Inhibition of CIP2A protein expression in human PLC5 cells assessed as CIP2A protein expression ratio level at 0.5 uM by Western blotting analysis (Rvb =1); assay type: functional
Homo sapiens [18] = organism: Homo sapiens; assay: Inhibition of CIP2A protein expression in human PLC5 cells by Western blotting analysis; assay type: functional, cell-based
SK-HEP1 [19] = assay: Inhibition of PP2A-C protein expression in human SKHEP1 cells at 1 uM incubated for 24 hrs by Western blotting analysis; assay type: functional, cell-based

## C#Cc1cccc(Nc2nc3ccccc3nc2Nc2cccc(C#C)c2)c1
Homo sapiens [1]
  Activity: inactive
Hep 3B2 [2]
  Ratio: 0.57
Hep 3B2 [3]
  inhibition: inactive
[4]
  inhibition: Dose-dependent effect
SK-HEP1 [5]
  Ratio: 0.21
Homo sapiens [6]
  inhibition: Active
Homo sapiens [7]
  Activity: Active
Homo sapiens [8]
  Activity: Active
SK-HEP1 [9]
  Ratio: 0.1
Mus musculus
  Activity: Active
Homo sapiens [10]
  Activity: Active
Homo sapiens [11]
  Activity: inactive
SK-HEP1 [12]
  inhibition: inactive
Hep 3B2 [13]
  Activity: Dose-dependent effect
Homo sapiens [14]
  MEC: 100 to 200 nM
HA22T cell line
  Ratio: 0.84
SK-HEP1 [15]
  inhibition: inactive
Homo sapiens [16]
  Activity: inactive
[17]
  Ratio: 0.84
Homo sapiens [18]
  inhibition: Dose-dependent effect
SK-HEP1 [19]
  inhibition: inactive
